Results as given in PMC8126888 (RSC Medicinal Chemistry, 2020).
Where two headings read alike, the source gives them in different places.

Assays:
physchem = conditions: HPLC, Ascentis Express RP Amide column, pH 7.4, eLogD, experimental
in vitro [1] = conditions: human
[2] = test system: Leishmania infantum MHOM/MA(BE)/67/ITMAP263 intracellular amastigotes; experiment: microbe, parasite or virus in culture; conditions: Macrophage, in Mus musculus
[3] = test system: primary peritoneal mouse macrophages (PMM); experiment: cells; conditions: Macrophage, read-out: PMM IC50 (uM)
in vitro [4] = conditions: PAMPA
in vitro [5] = conditions: human, microsomes, pH 7.4, HLM CLint (uL/min/mg), human liver microsomes
in vitro [6] = conditions: mouse, microsomes, pH 7.4, MLM CLint (uL/min/mg), mouse liver microsomes
in vitro [7] = conditions: human, HFF-1 cells
[8] = test system: Trypanosoma cruzi, Tulahuen CL2, beta-galactosidase strain; experiment: microbe, parasite or virus in culture; conditions: MRC5, read-out: T. cruzi Tulahuen C4 (LacZ) IC50 (uM)
in vitro [9] = conditions: human, HepG2 cells
[10] = read-out: L. Inf. pIC50, from L. infantum intracellular amastigote IC50 (converted)
[11] = read-out: L. infantum MHOM/MA(BE)/67/ITMAP263 intracellular amastigotes IC50 (uM), intracellular amastigotes

Structure (SMILES)	chromatographic logD (physchem)	CC50 at 3 days (in vitro [1]) [µM]	IC50 [2, 10] [µM]	IC50 [2, 11] [µM]	IC50 [3] [µM]	Papp (in vitro [4]) [×10⁻⁶ cm/s]	microsomal CLint at 0.5 μM (in vitro [5]) [µL/min/mg]	microsomal CLint at 0.5 μM (in vitro [6]) [µL/min/mg]	CC50 (in vitro [7]) [µM]	IC50 [8] [µM]	CC50 (in vitro [9]) [µM]
COc1ccc(C(=O)N2CCN(C)CC2)cc1S(=O)(=O)N(Cc1ccc(F)cc1)Cc1ccc(F)cc1 [DNDI0003371173]	4.7	25.8	0.537	0.54	32	3.23	585	2240	4.16	11.1	49.5
COc1ccc(C(=O)N(C)CCO)cc1S(=O)(=O)N(Cc1ccc(F)cc1)Cc1ccc(F)cc1 [DNDI0003371175]	3.8	> 64	2.09	2.08	> 64	11.2	498	605	60.2	25.3	57.6
COc1ccc(C(=O)NCCO)cc1S(=O)(=O)N(Cc1ccc(F)cc1)Cc1ccc(F)cc1 [DNDI0003371176]	3.8	> 64	2.51	2.53	> 64	5.78	131	410	> 64	44.3	> 64
COCCNC(=O)c1ccc(OC)c(S(=O)(=O)N(Cc2ccc(F)cc2)Cc2ccc(F)cc2)c1 [DNDI0003371177]	4.1	> 64	1.02	1.03	> 64	8.63	407	1670	> 64	40.4	54.1
COc1ccc(C(=O)N2CCOCC2)cc1S(=O)(=O)N(Cc1ccc(F)cc1)Cc1ccc(F)cc1 [DNDI0003371178]	4	> 64	1.02	1.02	> 64	9.35	997	984	46.9	50.7	44.5
COc1ccc(CN(Cc2ccc(F)cc2)S(=O)(=O)c2cc(F)ccc2OCCN(C)C)cc1 [DNDI0003378485]	5	6.43	3.24	3.24	8	0.29	183	1080	1.95	6.96	9.1
COc1ccc(C#N)cc1S(=O)(=O)N(Cc1ccc(F)cc1)C1CCOCC1 [DNDI0003388084]		> 64	> 64	> 64	> 64	12.7	194	253	44.1	53.1	> 64
COc1ccc(-c2nc(C)no2)cc1S(=O)(=O)N(Cc1ccc(F)cc1)Cc1ccc(F)cc1 [DNDI0003388085]	4.6	> 64	5.62	5.68	> 64	1.74	177	739	38.6	> 64	> 64
COc1ccc(OC)c(S(=O)(=O)N(Cc2ccc(F)cc2)C2CCOCC2)c1 [DNDI0003388086]	3.7	> 64	> 64	> 64	> 64	31.9	49	599	> 64	45	> 64
COc1ccc(Cl)cc1S(=O)(=O)N(Cc1ccccc1)C(CO)c1ccc(F)cc1 (centres unmarked) [DNDI0003388149]		21.6	1.7	1.69	> 64	3.4	18	38	1.25	15.8	15.7
COc1ccc(CNC2COC2)cc1S(=O)(=O)N(Cc1ccc(F)cc1)Cc1ccc(F)cc1 [DNDI0003389115]	4	41.7	1.78	1.79	> 64	3.42	147	384	51.7	14.4	> 64
COc1ccc(CN2CCC(F)(F)CC2)cc1S(=O)(=O)N(Cc1ccc(F)cc1)Cc1ccc(F)cc1 [DNDI0003389116]	4.8	> 64	3.16	3.18	45.2	0.4	984	1760	18.2	2.93	> 64
CN(C)c1ncccc1S(=O)(=O)N(Cc1ccc(F)cc1)Cc1ccc(F)cc1 [DNDI0003389117]	4.6	42.7	6.03	5.99	> 64	1.18	728	903	16.7	12.6	56.7
COc1ccc(N2CCOCC2)cc1S(=O)(=O)N(Cc1ccc(F)cc1)Cc1ccc(F)cc1 [DNDI0003389118]	4.3	> 64	0.324	0.32	> 64	2.55	82	488	15.2	7.91	> 64
O=S(=O)(c1cccnc1N1CCOCC1)N(Cc1ccc(F)cc1)Cc1ccc(F)cc1 [DNDI0003389119]	4.5	> 64	2.82	2.83	> 64	3.63	823	738	29.4	15.1	> 64
N#Cc1ccc(O)c(S(=O)(=O)N(Cc2ccc(F)cc2)Cc2ccc(F)cc2)c1 [DNDI0003389125]	3.5	4	30.9	30.7	45.2	13.2	33	366	7.8	16.8	> 64
COc1ccc(C(=O)N2CCOCC2)cc1S(=O)(=O)N(C)Cc1ccc(F)cc1 [DNDI0003389126]	2.7	> 64	57.5	57	> 64	16.6	70	94	> 64	41.4	> 64
COc1ccc(C(=O)N2CCOCC2)cc1S(=O)(=O)N(Cc1ccc(F)cc1)CC(C)C [DNDI0003389127]		> 64	6.92	6.86	> 64	17.7	543	355	8.25	39.1	> 64
COc1ccc(C(=O)N2CCOCC2)cc1S(=O)(=O)N(Cc1ccc(F)cc1)Cc1ccccc1Cl [DNDI0003389128]	4.1	36.8	1.41	1.4	> 64	9	351	1660	10.5	9.66	> 64
COc1ccc(OC)c(S(=O)(=O)N(Cc2ccc(F)cc2)Cc2ccnn2C)c1 [DNDI0003389129]		> 64	5.13	5.19	45.2	35.6	207	1090	26.3	21.1	> 64
COc1ccc(Cl)cc1S(=O)(=O)N(Cc1ccccc1)CC(O)c1ccc(F)cc1 (centres unmarked) [DNDI0003389316]	3.1	23.5	12	12	> 64	4	298	147	4.75	17.8	51.5
COc1ccccc1S(=O)(=O)N(Cc1ccccc1)CC(O)c1ccc(F)cc1 (centres unmarked) [DNDI0003389317]	4.1	40.7	11.5	11.6	> 64	11.8	610	1240	10.5	26.6	> 64
COc1ccc(OC)c(S(=O)(=O)N(Cc2ccc(F)cc2)Cc2cnc(OC)nc2OC)c1 [DNDI0003389321]		> 64	53.7	53.8	> 64	15.2	270	861	> 64	27.8	> 64
